According to PubChem BioAssay (NCI):
Values after ≈ are worked out from the molar mass of the structure shown. Values joined by “and” are separate entries in the source; they are usually repeats but may differ in a detail not shown here. Equal entries are not always repeated.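 A five-concentration, 48-hour dose response in 96-well plates underlies each endpoint, interpolated linearly between surrounding concentrations. Abbreviation: GI50, concentration required for 50% inhibition of growth. TGI marks complete inhibition of growth.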 Active and inactive are the calls of the source. No stated cut-off is given here; in the data, active means GI50 below about 0.43 µM; inactive means the rest.

Legend:
Assay in all cases: NCI-60 cell line screen, 48 h
[1] = system: LXFL 529 NSCLC
[2] = system: SNB-78 CNS
[3] = system: DMS 114 small cell lung
[4] = system: DMS 273 small cell lung
[5] = system: DLD-1 colon
[6] = system: XF 498 CNS
[7] = system: HOP-18 NSCLC
[8] = system: RXF-631 renal
[9] = system: MDA-N
[10] = system: T-47D breast

CC1=C(C(=O)Nc2ccccc2C)C(c2ccccc2O)C(C(=O)Nc2ccccc2C)=C(C)N1
TGI [1]: 51 µM | TGI [2]: 74.7 µM | TGI [3]: 50.4 µM | TGI [4]: 35.2 µM | TGI [5]: 36.1 µM | TGI [6]: 61.5 µM | TGI [7]: 55.6 µM

COC(=O)/C=C(C)/C=C/c1c(C)c(C(C)=O)c(C)n1C
TGI [1]: > 100 µM | TGI [2]: > 100 µM | TGI [4]: > 100 µM | TGI [5]: > 100 µM | TGI [6]: > 100 µM | TGI [8]: > 100 µM | TGI [7]: > 100 µM

O=C1NC(c2cccc3ccccc23)Nc2ccccc21 (centres undefined)
TGI [9]: 0.00629 µM and 0.0586 µM

CN(C)C[C@@H]1CCn2cc(c3ccccc32)C2=C(C(=O)NC2=O)c2cn(c3ccccc23)CCO1
GI50 [10]: 828 nM | TGI [10]: > 10 µM

O=C1C(c2ccccc2)=[N+]([O-])c2cc([N+](=O)[O-])ccc21
TGI [3]: 27.3 µM | TGI [5]: 46.9 µM | TGI [6]: 39.3 µM | TGI [7]: > 100 µM

CC1OC(OC2C(O)C(OCCc3ccc(O)c(O)c3)OC(CO)C2OC(=O)/C=C/c2ccc(O)c(O)c2)C(O)C(O)C1O (centres undefined)
GI50 [10]: > 100000 nM | TGI [10]: > 100 µM

CC(C)c1ccc(C(O)(C(=O)O)c2ccc(C(C)C)cc2)cc1
TGI [10]: > 100 µM | TGI [9]: > 100 µM

COc1ccc2c(c1)C(=O)/C(=C/c1cccc(OCC(=O)c3ccc([N+](=O)[O-])cc3)c1)CO2
GI50 [10]: 1650 nM | TGI [10]: 4.54 µM

CC(=O)OCC1OC([S-])C(OC(C)=O)C(OC(C)=O)C1OC(C)=O.[Au+].c1ccc(CN2[CH-]N(Cc3ccccc3)C(c3ccccc3)=C2c2ccccc2)cc1
GI50 [10]: 1720 nM and 417 nM | TGI [10]: 3.81 µM and 2.75 µM

C=C1C(=O)O[C@H]2C3OC3(C)CC/C=C(/C(=O)OC)[C@@H](OC(C)=O)[C@H](OC(=O)C3(C)OC3C)[C@H]12 (some centres undefined)
outcome [1]: inactive | GI50 [2]: 1.81 µg/mL | TGI [2]: 6.79 µg/mL | GI50 [3]: 0.604 µg/mL (≈ 1.3 µM) | TGI [3]: 1.8 µg/mL | GI50 [4]: 1.1 µg/mL | TGI [4]: 3.73 µg/mL | GI50 [10]: 4600 nM | TGI [9]: 3.46 µM | outcome [7]: inactive

CCOC(=O)Nc1cc2c(c(N)n1)N=C(c1ccccc1)CN2
TGI [10]: > 90.5 µM

CC[C@@]1(O)C(=O)OCc2c1cc1n(c2=O)Cc2cc3cccc(N)c3nc2-1
GI50 [1]: > 100 µM | TGI [1]: > 100 µM | GI50 [2]: > 100 µM | TGI [2]: > 100 µM | GI50 [4]: 1780 nM | TGI [4]: 8.48 µM | GI50 [5]: > 100 µM | TGI [5]: > 100 µM | GI50 [6]: 27.3 µM | TGI [6]: 82.1 µM

Cn1c2ccccc2c2c(=O)n(CCCC(=O)NCCc3cnc[nH]3)c3c(-c4ccccc4)nnn3c21
GI50 [10]: 10400 nM | TGI [10]: 25.1 µM

CCCCCCCCCCCCSC1=CC(=O)C=CC1=O
GI50 [10]: 893 nM | TGI [10]: 3.58 µM

CC(=O)OC(C)(C)C[N+](=O)[O-]
TGI [1]: > 100 µM | TGI [3]: > 100 µM | TGI [4]: > 100 µM | TGI [5]: > 100 µM

CC(C)c1ccc(C(c2c(O)c3ccccc3oc2=O)c2c(O)c3ccccc3oc2=O)cc1
TGI [10]: > 100 µM | TGI [9]: 46.8 µM

Cl.[O-]c1cccc2cccnc12.[O-]c1cccc2cccnc12.[O-]c1cccc2cccnc12.[O-]c1cccc2cccnc12.[Ti+4]
TGI [3]: 0.365 µM | TGI [4]: 1.69 µM | TGI [5]: 1.6 µM | TGI [7]: > 100 µM

Cc1cc(C(=O)CC(Cl)=C(Cl)Cl)c(Cl)cc1Cl
GI50 [10]: 19900 nM | TGI [10]: 44.2 µM

CCN(CC)CCNc1ccc(N=Nc2cnc3ccccc3c2)c2ccccc12
GI50 [10]: 1810 nM | TGI [10]: 4.08 µM

COc1ccc(-c2nsc3c2NC(=O)CC3c2cccc(F)c2)cc1 (centres undefined)
GI50 [10]: 4810 nM | TGI [10]: > 100 µM

COC1/C=C/OC2(C)Oc3c(C)c(O)c4c(O)c(c(/C=N/N(c5ccccc5)c5ccccc5)c(O)c4c3C2=O)NC(=O)C(C)=C/C=C/C(C)C(O)C(C)C(O)C(C)C(OC(C)=O)C1C (centres undefined)
GI50 [10]: 1820 nM | TGI [10]: 7.87 µM

CN(CO)c1nc(N(C)CO)nc(N(C)CO)n1
TGI [2]: 25.3 µM | TGI [4]: 25.8 µM | TGI [5]: 97.2 µM | GI50 [10]: 25000 nM | TGI [10]: 67.7 µM and 211 µM | GI50 [9]: 24.8 µM | TGI [9]: 39.3 µM and 63.4 µM | TGI [6]: 12.8 µM | TGI [7]: > 55.6 µM

O=C1c2c(c3c4ccccc4n(CCCCCCN4CCOCC4)c3c3[nH]c4ccccc4c23)C(=O)N1O
GI50 [10]: 18700 nM | TGI [10]: > 94.6 µM

Cc1cc2oc(=O)cc(OC/C=C3/CCC(=O)O3)c2cc1C
GI50 [10]: 1690 nM | TGI [10]: 7.5 µM

CCCn1cc(/C=N\N=C2\C(=O)Nc3ccc(C)cc32)c2ccccc21
GI50 [10]: 416 nM | TGI [10]: 18.4 µM

CCc1nc(N)nc(N)c1-c1ccc(N(C)Cc2ccccc2)c([N+](=O)[O-])c1
TGI [10]: 21.4 µM | TGI [9]: 19.1 µM

O=C(O)C1C2C=CC(O2)C1C(=O)NCc1ccncc1 (centres undefined)
TGI [10]: > 100 µM | TGI [9]: > 100 µM

CC(=O)CCn1[nH]c(=O)c(Cl)c(Cl)c1=O
TGI [1]: > 100 µM | TGI [2]: > 100 µM | TGI [3]: > 100 µM | TGI [4]: > 100 µM | TGI [5]: > 100 µM | TGI [6]: > 100 µM | TGI [7]: > 100 µM

COc1ccc2[nH]cc(C3(c4c[nH]c5ccc(OC)cc45)C(=O)Nc4ccc(Cl)cc43)c2c1
GI50 [10]: 4930 nM | TGI [10]: > 100 µM

Cc1cc(=O)n2c(cc3cccccc32)n1
TGI [1]: > 100 µM | TGI [2]: > 100 µM | TGI [4]: > 100 µM

CCCCCCCCC1C(C)c2c([nH]c3ccccc23)C2C(=O)N(c3ccccc3)C(=O)C21 (centres undefined)
TGI [1]: 30.1 µM | TGI [2]: 29.8 µM | TGI [3]: 23.4 µM | TGI [4]: 22.2 µM | TGI [5]: 45.2 µM | TGI [8]: 14.2 µM

O=c1oc2ccc(I)cc2c(=O)n1-c1ccc(I)cc1F
GI50 [10]: 298 nM | TGI [10]: 3.49 µM

Cc1cnc(-c2ccc(-c3ccc(NC(=O)Nc4cccc(C(F)(F)F)c4)cc3F)c3c2C(=O)NC3)[nH]1
GI50 [10]: 12700 nM | TGI [10]: 33.5 µM

O=C(CO)CC(=O)C(=O)Nc1cccc(C(F)(F)F)c1
TGI [1]: > 100 µM | TGI [4]: > 100 µM | TGI [5]: > 100 µM | TGI [6]: > 100 µM

N#Cc1ccc(O)c(C2=NCC(c3ccc(-c4ccccc4)cc3)O2)c1 (centres undefined)
GI50 [10]: 565 nM | TGI [10]: 24.1 µM
